According to ChEMBL document CHEMBL5576160, “N-Substituted Pyrrole-Based Heterocycles as Broad-Spectrum Filoviral Entry Inhibitors” (J Med Chem, 2024):
Calls of active or inactive are those of the source. No cut-off for these calls is given here.

Tests used:
Bundibugyo virus = assay: Antiviral activity against pseudotyped Bundibugyo virus infected in human A549 cells assessed as inhibition of viral growth; type: functional, organism-based
Marburgvirus [1] = assay: Antiviral activity against Marburgvirus Angola infected in human Huh-7 cells assessed as inhibition of viral replication; type: functional, organism-based; conditions: Orthomarburgvirus
Ebolavirus [2] = assay: Antiviral activity against pseudotyped EBOV Mayinga infected in human A549 cells assessed as inhibition of Pseudoviral entry incubated for 40 hrs; type: functional, organism-based; conditions: Orthoebolavirus, A549, 40 h
Sudan ebolavirus [3] = assay: Antiviral activity against pseudotyped Sudan ebolavirus Gulu infected in human A549 cells assessed as inhibition of viral growth; type: functional, organism-based
Sudan ebolavirus [4] = assay: Antiviral activity against pseudotyped Sudan ebolavirus Gulu infected in human HeLa cells assessed as inhibition of viral replication; type: functional, organism-based
Marburgvirus [5] = assay: Antiviral activity against pseudotyped Marburgvirus Angola infected in human A549 cells assessed as inhibition of Pseudoviral entry incubated for 40 hrs; type: functional, organism-based; conditions: Orthomarburgvirus, A549, 40 h
Tai Forest ebolavirus = assay: Antiviral activity against pseudotyped Tai Forest ebolavirus infected in human A549 cells assessed as inhibition of viral growth; type: functional, organism-based
[6] = Selectivity index, ratio of CC50 for cytotoxicity against human A549 cells to EC50 for antiviral activity against pseudotyped Marburgvirus Angola infected in human A549 cells assessed as inhibition of Pseudoviral entry; type: toxicity, cell-based; conditions: read-out: Ratio CC50/EC50
[7] = Stability in mouse plasma measured after 60 mins; type: ADME, cell-free; conditions: read-out: Stability
[8] = Stability in human plasma measured after 60 mins; type: ADME, cell-free; conditions: read-out: Stability
Ebolavirus [9] = assay: Antiviral activity against EBOV Mayinga infected in human HeLa cells assessed as inhibition of viral replication incubated for 40 hrs; type: functional, organism-based; conditions: Orthoebolavirus
[10] = Selectivity index, ratio of CC50 for cytotoxicity against human A549 cells to EC50 for antiviral activity against pseudotyped EBOV Mayinga infected in human A549 cells assessed as inhibition of Pseudoviral entry; type: toxicity, cell-based; conditions: read-out: Ratio CC50/EC50
CYP2C9 = CYP2C9 (Homo sapiens, UniProt P11712); assay: Inhibition of CYP2C9 in human liver microsomes using tolbutamide as substrate at 10 uM preincubated with compound for 5 mins followed by NADPH addition and measured after 20 mins by LC-MS/MS analysis relative to control; type: ADME, Microsome; conditions: probe tolbutamide, time 25 min
CYP2C9, sequence (P11712 whole entry): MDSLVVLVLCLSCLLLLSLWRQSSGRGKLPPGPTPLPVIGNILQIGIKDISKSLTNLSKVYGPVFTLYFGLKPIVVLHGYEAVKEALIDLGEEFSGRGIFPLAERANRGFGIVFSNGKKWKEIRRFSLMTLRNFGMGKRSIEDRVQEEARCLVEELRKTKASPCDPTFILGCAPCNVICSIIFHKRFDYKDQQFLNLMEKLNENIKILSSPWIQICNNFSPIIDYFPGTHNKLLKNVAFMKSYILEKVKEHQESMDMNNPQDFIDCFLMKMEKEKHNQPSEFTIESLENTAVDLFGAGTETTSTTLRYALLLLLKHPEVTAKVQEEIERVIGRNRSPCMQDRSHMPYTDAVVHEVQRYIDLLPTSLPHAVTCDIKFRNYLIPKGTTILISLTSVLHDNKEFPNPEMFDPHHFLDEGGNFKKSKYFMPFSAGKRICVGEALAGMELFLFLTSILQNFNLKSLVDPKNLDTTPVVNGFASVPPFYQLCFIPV

Marburgvirus [11] = assay: Antiviral activity against pseudotyped Marburgvirus Angola infected in human A549 cells assessed as inhibition of viral growth at 10 uM entry measured after 2 hrs; type: functional, organism-based
Ebolavirus [12] = assay: Antiviral activity against pseudotyped EBOV Mayinga infected in human A549 cells assessed as inhibition of viral growth at 3 uM measured after 3 hrs; type: functional, organism-based
CYP2D6 = CYP2D6 (Homo sapiens, UniProt P10635); assay: Inhibition of CYP2D6 in human liver microsomes using dextromethorphan as substrate at 10 uM preincubated with compound for 5 mins followed by NADPH addition and measured after 20 mins by LC-MS/MS analysis relative to control; type: ADME, Microsome; conditions: probe dextromethorphan, time 25 min
CYP2D6, sequence (P10635 whole entry): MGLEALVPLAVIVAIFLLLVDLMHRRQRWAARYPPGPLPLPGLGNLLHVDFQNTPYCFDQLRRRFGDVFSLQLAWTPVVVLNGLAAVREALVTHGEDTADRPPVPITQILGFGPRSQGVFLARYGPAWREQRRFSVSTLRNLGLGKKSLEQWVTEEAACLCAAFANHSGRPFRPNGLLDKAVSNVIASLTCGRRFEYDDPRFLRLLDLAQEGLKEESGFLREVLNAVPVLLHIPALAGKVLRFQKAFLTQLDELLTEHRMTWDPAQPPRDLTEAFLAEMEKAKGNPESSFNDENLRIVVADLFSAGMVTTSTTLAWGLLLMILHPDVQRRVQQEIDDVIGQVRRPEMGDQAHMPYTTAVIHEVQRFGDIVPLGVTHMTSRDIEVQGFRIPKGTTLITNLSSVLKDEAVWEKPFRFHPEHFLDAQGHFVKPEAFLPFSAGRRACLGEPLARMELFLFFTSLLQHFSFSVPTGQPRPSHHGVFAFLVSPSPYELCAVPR

[13] = Metabolic stability in human microsome measured at 60 min; type: ADME; conditions: microsomes, read-out: Stability
[14] = Binding affinity to EBOV glycoprotein assessed as dissociation constant by SPR analysis; design: species or system Ebolavirus
Ebolavirus [15] = assay: Antiviral activity against pseudotyped EBOV 1976 Zaire Mayinga assessed as inhibition of viral growth; type: functional, organism-based; conditions: Orthoebolavirus
Ebolavirus [16] = assay: Antiviral activity against infectious EBOV 1976 Zaire Mayinga assessed as inhibition of viral growth; type: functional, organism-based; conditions: Orthoebolavirus
Marburgvirus [17] = assay: Antiviral activity against pseudotyped Marburgvirus 2005 Lake Victoria Angola assessed as inhibition of viral growth; type: functional, organism-based; conditions: Orthomarburgvirus

| SMILES | EC50 (Bundibugyo virus) [µM] | EC50 (Marburgvirus [1]) [µM] | EC50 (Ebolavirus [2]) [µM] | EC50 (Sudan ebolavirus [3]) [µM] | EC50 (Sudan ebolavirus [4]) [µM] | EC50 (Marburgvirus [5]) [µM] | EC50 (Tai Forest ebolavirus) [µM] | selectivity ratio [6] | remaining at 1 h [7] [%] | remaining at 1 h [8] [%] | EC50 (Ebolavirus [9]) [µM] | selectivity ratio [10] | Activity (Marburgvirus [11]) | Activity (Ebolavirus [12]) | Kd [14] [µM] | other results |
| --- | --- | --- | --- | --- | --- | --- | --- | --- | --- | --- | --- | --- | --- | --- | --- | --- |
| CN(C)C1CCN(C(=O)c2cc3occc3n2Cc2ccc(Cl)cc2)CC1 | 1.99 | 7.96 | 1.05 | 0.641 | 0.5 | 11.5 | 5.6 | 5.3 | 100 | 100 | 6.21 | 58 |  |  |  |  |
| CN(C)C1CCN(C(=O)c2cc3ccccc3n2CC2CCCCC2)CC1 |  | 1.32 | 0.295 |  | 0.652 | 3.34 |  | 15 | 100 | 100 | 0.391 | 170 | inactive | inactive |  | inhibition at 20 min, 10 µM (CYP2C9): 4.82%; inhibition at 20 min, 10 µM (CYP2D6): 19.1% |
| CN(C)C1CCN(C(=O)c2cn(Cc3ccccc3)c3ccccc23)CC1 |  |  | 2.84 |  |  | 14.6 |  | 6.9 | 100 | 100 |  |  |  |  |  | remaining at 1 h [13]: 95.7% |
| CN(C)CCOc1ccc(/C(=C(/CCCl)c2ccccc2)c2ccccc2)cc1 [TOREMIFENE] |  |  |  |  |  |  |  |  |  |  |  |  | inactive | inactive | 18.9 |  |
| CN(C)CCNC(=O)c1cc2occc2n1Cc1ccc(Cl)cc1 | 1.95 | 6.69 | 1.26 | 1.04 | 3.29 | 6.47 | 4.3 | 9.8 | 100 | 100 | 2.43 | 50 |  |  |  | EC50 (Ebolavirus [15]): 1.26 µM; EC50 (Ebolavirus [16]): 5.2 µM; EC50 (Marburgvirus [17]): 7.7 µM |
| OCCOc1ccc(/C(=C(/CCCl)c2ccccc2)c2ccccc2)cc1 [OSPEMIFENE] |  |  |  |  |  |  |  |  |  |  |  |  |  |  | 19.8 |  |
